Measured values reported in patent publication US20250288583A1, “Treatment of Mucus Hypersecretion” (priority 2024, published 2025).
“Also recorded” adds a separate entry of the source.

Experiments:
nasal cavity [1] = test: Gravimetric measurement of nasal secretions in a subject with rhinitis after NasoNeb rinsing; assay type: in vivo, human; details: NasoNeb rinse 5 sec at t=0, 2, 5 hr, D-Ala-OiPr 2 mg/mL, GlyOiPr 3 mg/mL; for Weight of individual blowouts of nasal secretions (average ± s.e.m.): vehicle 0.40±0.03 g; for 10-hr nasal secretion (avg. ± s.e.m): vehicle 3.53±0.44 g
Description: A top-loading balance, sensitive to 1 mg, was used to measure phlegm secretions from the nose. A pre-weighed tissue paper was tared to zero, and after blowing into the tissue, the amount of exudate was recorded from the balance display. This measurement is an objective sign of nasal inflammation. Microbalances, sensitive to 1 mg, are now available online for less than $20. Conventional laboratory balances with the same capabilities are listed for $2000+ each but should now be obsolete. The convenience of an inexpensive method for quantifying phlegm output as an indicator of nasal pathology is part of the inventive steps.
FIG. 9. Inhibition of nasal secretions in a subject with rhinitis by topical administration of the preferred embodiments D-Ala-OiPr and GlyOiPr with a Nasoneb® apparatus. Rinsing of GlyOiPr and D-Ala-OiPr (dissolved 3 mg/ml and 2 mg/mL, respectively, in 1% ethanol and 2% polysorbate 80) was for 5 sec at t=0, 2, and 5 hr. Secretions were recorded for 10-15 hr per day. The 10-hr secretion (avg.±s.e.m) was vehicle 3.53±0.44 g, D-Ala-OiPr 1.70±0.27 g, GlyOiPr 1.32±0.32 g, with n=6, 5, 5 observations per group, respectively.
FIG. 10. Weights of individual blowouts of nasal secretions in a subject with rhinitis after topical administration of D-Ala-OiPr and GlyOiPr with a Nasoneb® apparatus. The vehicle or test substances were rinsed into the nasal cavity (0 mg/mL, 2 mg/mL and 3 mg/mL, respectively, for 5 sec at t=0, 2, and 5 hr). The data points are for individual “blowouts” from the nose, measured with tissue paper and balance. The data are plotted on a semi-log scale, so zero values are not shown. The average #s.e.m. for blowouts were: vehicle 0.40±0.03 g, D-Ala-OiPr 0.19±0.02 g, GlyOiPr 0.19±0.02 g, with n=70, 44, 42 observations per group, respectively.
In the first experimental step, the phlegm secretion must be accurately measured. That is, it is necessary to show what is “blown out” of the nose in patients with rhinitis (FIG. 8). The treatment goal is to reduce the accumulation of dense, slimy, viscous phlegm, which will otherwise ooze out of the nasal cavity. In practice, it was discovered that if treatment can reduce individual blowouts to <0.25 g/event, the subject with rhinitis becomes essentially “disease-free” and is able to have normal daily activities and sleep well at night. […] The top-loading microbalance method for quantifying phlegm weight is an excellent monitor of rhinitis intensity.
FIG. 9. […] The data points represent secretions recorded for 10-15 hr per day. These points were fitted by linear regression (GraphPad Prism), and the 10-hr secretion measured (avg.±s.e.m) as vehicle 3.53±0:44 g, D-Ala-OiPr 1.700:27 g; GlyOiPr 1.32±0.32 g, with n=6, 5, 5 observations per group, respectively. […]

TRPV1 = biological target: T1, TRPV1 (Homo sapiens, UniProt Q8NER1); test: TRPV1 specificity assay in transfected cells; assay type: cell-based; details: FIG. 5; capsaicin positive control
T1 construct: expressed in transfected cells

nasal cavity [2] = test: Nebulizer screening of TRPM8 agonists for sensations in the nasal cavity; assay type: in vivo, human; details: NasoNeb nebulizer, 3 to 5 sec per nostril
oral cavity = details: Johnson et al., 2018; cited from earlier work
Stability of the solid = assay type: physicochemical; details: room temperature and physiological pH

T1 sequence (Q8NER1 whole entry, species assumed): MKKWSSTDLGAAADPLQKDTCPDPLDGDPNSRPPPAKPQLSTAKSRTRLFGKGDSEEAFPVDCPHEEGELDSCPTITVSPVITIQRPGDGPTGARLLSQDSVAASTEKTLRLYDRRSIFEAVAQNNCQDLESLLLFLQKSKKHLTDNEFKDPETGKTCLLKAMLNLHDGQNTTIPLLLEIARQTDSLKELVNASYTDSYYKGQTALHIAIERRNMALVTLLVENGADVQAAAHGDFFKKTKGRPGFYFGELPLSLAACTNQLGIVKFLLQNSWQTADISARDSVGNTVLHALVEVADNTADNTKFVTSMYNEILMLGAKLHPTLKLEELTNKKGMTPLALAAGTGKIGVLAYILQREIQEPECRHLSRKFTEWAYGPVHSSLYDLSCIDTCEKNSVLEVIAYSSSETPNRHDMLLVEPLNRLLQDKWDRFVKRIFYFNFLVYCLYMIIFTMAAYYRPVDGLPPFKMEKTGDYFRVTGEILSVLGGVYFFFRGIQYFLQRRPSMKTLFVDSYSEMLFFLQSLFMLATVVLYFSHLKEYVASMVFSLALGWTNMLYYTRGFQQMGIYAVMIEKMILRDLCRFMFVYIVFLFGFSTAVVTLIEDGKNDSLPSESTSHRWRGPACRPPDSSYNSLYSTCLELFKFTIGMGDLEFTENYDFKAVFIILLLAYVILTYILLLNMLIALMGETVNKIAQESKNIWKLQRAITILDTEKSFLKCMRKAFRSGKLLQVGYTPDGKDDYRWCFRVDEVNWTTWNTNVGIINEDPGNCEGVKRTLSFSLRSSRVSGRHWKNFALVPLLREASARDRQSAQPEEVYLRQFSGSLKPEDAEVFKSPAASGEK

Row | SMILES | Weight of individual blowouts of nasal secretions (average ± s.e.m.) (nasal cavity [1]) [g] | 10-hr nasal secretion (avg. ± s.e.m) (nasal cavity [1]) [g] | Response of cells transfected with TRPV1 (TRPV1) | Sensory effects after delivery into the nasal cavity (nasal cavity [2]) | Sensory qualities in the oral cavity compared with WS-5 (oral cavity) | Stability (Stability of the solid)
1 | CC(C)OC(=O)[C@@H](C)NC(=O)[C@@H]1C[C@H](C)CC[C@H]1C(C)C [D-Ala-OiPr, (R)-2-[((1R,2S,5R)-2-isopropyl-5-methyl-cyclohexanecarbonyl)amino]-propionic acid i-propyl ester] | 0.19 ± 0.02 | 1.70±0.27 | inactive | Longer-acting than GlyOiPr. Excellent agent. It may have a slightly bitter taste. | – | –
2 | CC(C)OC(=O)CNC(=O)[C@@H]1C[C@H](C)CC[C@H]1C(C)C [GlyOiPr, [((1R,2S,5R)-2-isopropyl-5-methyl-cyclohexanecarbonyl)-amino]-acetic acid isopropyl ester] | 0.19 ± 0.02 | 1.32±0.32 | do not respond; also recorded: activates TRPM8 but not TRPV1 or TRPA1 | The sense of coolness is pure, without any harsh tones. | more refreshing and less bitter than WS-5 | stable at room temperature and physiological pH
